According to patent US20050054605A1, “Partial or full A1 agonists - N6 heterocyclic 5' thio substituted adenosine derivatives” (priority 1999, published 2005):

Tests used:
[1] = molecular target: T1, A1 receptor in DDT1 cells (Mesocricetus auratus, UniProt A0A1U8BVR4); test: cAMP assay (SPA) in DDT1 cells, forskolin-induced cAMP; type: cell-based, hamster; conditions: forskolin 5 μM; for Camp: rolipram 50 μM, 10 min 37° C., normalized to the full agonist CPA
T1 construct: endogenous in cells; host or cells: DDT1 cells (hamster vas deferens smooth muscle cell line): membranes in A1 and A3, whole cells in A4
T1 sequence (A0A1U8BVR4 1-326): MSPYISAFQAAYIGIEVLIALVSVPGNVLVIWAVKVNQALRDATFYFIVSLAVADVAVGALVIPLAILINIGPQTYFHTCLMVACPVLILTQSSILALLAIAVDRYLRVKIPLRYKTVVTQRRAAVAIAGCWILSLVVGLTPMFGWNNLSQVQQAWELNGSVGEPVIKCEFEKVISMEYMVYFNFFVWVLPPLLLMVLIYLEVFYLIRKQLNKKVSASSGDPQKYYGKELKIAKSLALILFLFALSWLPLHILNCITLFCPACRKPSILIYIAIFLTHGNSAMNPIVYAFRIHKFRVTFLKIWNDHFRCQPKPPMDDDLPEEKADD
Protocol: (§1) DDT cells (hamster vas deferens smooth muscle cell line) were grown as monolayers in petri dishes using Dulbecco's Modified Eagle's Medium (DMEM) containing […] amphotericin B, 100 U ml^−1 penicillin G, 0.1 mg ml^−1 streptomycin sulfate and 5% fetal bovine serum in a humidified atmosphere of 95% air and 5% CO2. Cells were subcultured twice weekly by dispersion in Hank's Balanced Salt Solution (HBSS) without the divalent cations and containing 1 mM EDTA. The cells were then seeded in growth medium at a density of 1.2×10^5 cells per plate and experiments were performed 4 days later at approximately one day preconfluence.
A scintillation proximity assay (SPA) using rabbit antibodies directed at cAMP using an added tracer of adenosine 3′,5′-cyclic phosphoric acid 2′-O-succinyl-3-[^125I]iodotyrosine methyl ester and fluoromicrospheres containing anti-rabbit specific antibodies as described by Amersham Pharmacia Biotech (Biotrak cellular communication assays). Briefly, DDT1 cells were cultured in clear bottomed 96 well microtiter plates with opaque wells at concentrations between 10^4 to 10^6 cells per well in 40 μl of HBSS at 37° C. (5% CO2 and 95% humidity). The partial or full A1 agonists (5 μl) of this invention were incubated at various concentrations with the DDT1 cells in the presence of rolipram (50 μM), and 5 μM forskolin for 10 min at 37° C. The cells were immediately lysed by treatment 5 μl of 10% dodecyltrimethylammonium bromide followed by shaking using microplate shaker. After incubation of the plate for 5 minutes, an immunoreagent solution (150 μl containing equal volumes of tracer, antiserum, and SPA fluorospheres) was added to each well followed by sealing the plate. After 15-20 h at 23° C., the amount of bound [^125I] cAMP to the fluoromicrospheres was determined by counting in a microtitre plate scintillation counter for 2 minutes. Comparison of counts with standard curves generated for cAMP using a similar protocol afforded the cAMP present after cell lysis.

A1 receptor [2] = molecular target: T2, A1 receptor (Sus scrofa, UniProt I3LEN5); test: Competitive binding assay, pig striatum membranes, [3H]CPX; conditions: pig striatal membranes, antagonist [3H]CPX 2 nM, 23 C, 2 h
T2 construct: from tissue; host or cells: pig striatum membranes
T2 sequence (I3LEN5 1-326): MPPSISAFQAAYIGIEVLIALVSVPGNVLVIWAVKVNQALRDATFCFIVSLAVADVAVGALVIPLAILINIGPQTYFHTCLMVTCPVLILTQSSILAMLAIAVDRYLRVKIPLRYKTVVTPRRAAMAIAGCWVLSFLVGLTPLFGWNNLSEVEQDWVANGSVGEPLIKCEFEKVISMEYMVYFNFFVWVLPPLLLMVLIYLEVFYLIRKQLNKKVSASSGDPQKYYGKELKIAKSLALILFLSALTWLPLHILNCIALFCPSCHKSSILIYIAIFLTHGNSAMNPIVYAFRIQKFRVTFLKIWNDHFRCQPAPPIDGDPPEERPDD
Protocol: (§2) Pig striatum were prepared by homogenation in 50 mM Tris buffer (5× volume of tissue mass pH=7.4). After centrifugation at 19,000 rpm for 25 minutes at 4° C., the supernatant was discarded, and the process was repeated twice. Compositions of this invention were assayed to determine their affinity for the A1 receptor in a pig striatum membrane prep or a DDT1 membrane prep. Briefly, 0.2 mg of pig striatal membranes or DDT1 cell membranes were treated with adenosine deaminase and 50 mM Tris buffer (pH=7.4) followed by mixing. To the pig membranes was added 2 μL of serially diluted DMSO stock solution of the compounds of this invention at concentrations ranging from 100 microM to 10 nM. The control received 2 microL of DMSO alone, then the antagonist [^3H] 8-cyclopentylxanthine (CPX) for pig striatum or the agonist [^3H] 2-chloro-6-cyclopentyladenosine (CCPA) for DDT1 membranes in Tris buffer (50 mM, pH of 7.4) was added to achieve a final concentration of 2 nM. After incubation at 23 C for 2 h, then the solutions were filtered using a membrane harvester using multiple washing of the membranes (3×). The filter disks were counted in scintillation cocktail affording the amount of displacement of tritiated CPX or by the competitive binding compositions of this invention. Greater than a 5 point curve was used to generate Ki's and the number of experiments is indicated in the column marked in Table 1, below: […]

A1 AdoR = molecular target: T3, A1 AdoR (Mesocricetus auratus, UniProt A0A1U8BVR4); test: [35S]GTPγS binding assay (A1-agonist stimulated), DDT1 membranes; type: biochemical, hamster; conditions: stimulated [35S]GTPγS binding normalized to the full agonist CPA
T3 construct: endogenous in cells; host or cells: DDT1 cells (hamster vas deferens smooth muscle cell line): membranes in A1 and A3, whole cells in A4
T3 sequence (A0A1U8BVR4 1-326): T1 sequence (A0A1U8BVR4 1-326)
Protocol: as §1
(§3) Attached cells were washed twice with HBSS (2×10 ml), scraped free of the plate with the aid of a rubber policeman in 5 ml of 50 mM Tris-HCl buffer pH 7.4 at 4° C. and the suspension homogenized for 10 s. The suspension was then centrifuged at 27,000×g for 10 min. The pellet was resuspended in homogenization buffer by vortexing and centrifuged as described above. The final pellet was resuspended in 1 vol of 50 mM Tris-HCl buffer pH 7.4 containing 5 mM MgCl2 for A1 AdoR assays. For the [^35S]GTPγS binding assay the final pellet was resuspended in 50 mM Tris-HCl pH 7.4 containing 5 mM MgCl2, 100 mM NaCl and 1 mM dithiothreitol. This membrane suspension was then placed in liquid nitrogen for 10 min, thawed and used for assays. The protein content was determined with a Bradford™ Assay Kit using bovine serum albumin as standard.
A1-agonist stimulated [^35S] GTPγS binding was determined by a modification of the method described by Giersckik et al. (1991) and Lorenzen et al. (1993). […] Nonspecific binding was determined by the addition of 10 μM GTPγS. […] Previous reports have shown that agonist stimulated [^35S]GTPγS binding was dependent on the presence of GDP (Gierschik et al., 1991; Lorenzen et al., 1993; Traynor & Nahorski, 1995). […] In saturation experiments, 0.5 nM [^35S]GTPγS was incubated with 0.5-1000 nM GTPγS. At the end of the incubation, each suspension was filtered and the retained radioactivity determined as described above.

A1 receptor [3] = molecular target: T4, A1 receptor (Mesocricetus auratus, UniProt A0A1U8BVR4); test: Competitive binding assay, DDT1 cell membranes, [3H]CCPA; design: species or system hamster; conditions: DDT1 membrane prep, agonist [3H]CCPA 2 nM, 23 C, 2 h
T4 construct: endogenous in cells; host or cells: DDT1 cells (hamster vas deferens smooth muscle cell line): membranes in A1 and A3, whole cells in A4
T4 sequence (A0A1U8BVR4 1-326): T1 sequence (A0A1U8BVR4 1-326)
Protocol: as §1, §3, §2

| Compound | Camp [1] | Ki (A1 receptor [2]) | GTP[…]S (A1 AdoR) | Ki (A1 receptor [3]) | effect on forskolin induced cAMP generation [1] |
| --- | --- | --- | --- | --- | --- |
| OC[C@H]1O[C@@H](n2cnc3c(NC4CCCC4)ncnc32)[C@H](O)[C@@H]1O [CPA, N-6-cyclopentyladenosine, reference compound] | 107% | – | – | – | diminished the amount of forskolin induced cAMP generation back to basal levels |
| CC(C)SC[C@H]1O[C@@H](n2cnc3c(N[C@@H]4CCOC4)ncnc32)[C@H](O)[C@@H]1O [Compound 10, 2-{6-[((3R)oxolan-3-yl)amino]purin-9-yl}(4S,5S,2R,3R)-5-[(Methylethylthio)methyl]oxolane-3,4-diol] | – | 188 nM | – | – | – |
| CCSC[C@H]1O[C@@H](n2cnc3c(N[C@@H]4CCOC4)ncnc32)[C@H](O)[C@@H]1O [Compound 8, 2-{6-[((3R)oxolan-3-yl)amino]purin-9-yl}(4S,5S,2R,3R)-5-[(Ethylthio)methyl]oxolane-3,4-diol] | 37% | – | 104% | – | – |
| CSC[C@H]1O[C@@H](n2cnc3c(N[C@@H]4CCOC4)ncnc32)[C@H](O)[C@@H]1O [Compound 7, 2-{6-[((3R)oxolan-3-yl)amino]purin-9-yl}(4S,5S,2R,3R)-5-(methylthiomethyl)oxolane-3,4-diol] | – | 222 nM | – | – | – |
| COc1ccccc1SC[C@H]1O[C@@H](n2cnc3c(N[C@@H]4CCOC4)ncnc32)[C@H](O)[C@@H]1O [Compound 17, 2-{6-[((3R)oxolan-3-yl)amino]purin-9-yl}(4S,5S,2R,3R)-5-[(2-Methoxyphenylthio)methyl]oxolane-3,4-diol] | 18% | – | 52% | 947 nM | – |

Second part, led by results:

| Camp [1] | Ki (A1 receptor [2]) | GTP[…]S (A1 AdoR) | Ki (A1 receptor [3]) | Compound | effect on forskolin induced cAMP generation [1] |
| --- | --- | --- | --- | --- | --- |
| – | 44 nM | – | – | O[C@@H]1[C@H](O)[C@@H](CSc2ccccc2)O[C@H]1n1cnc2c(N[C@@H]3CCOC3)ncnc21 [Compound 11, 2-{6-[((3R)oxolan-3-yl)amino]purin-9-yl}(4S,5S,2R,3R)-5-(phenylthiomethyl)oxolane-3,4-diol] | – |
| 22% | – | 31% | 7700 nM | O[C@@H]1[C@H](O)[C@@H](CSc2ccc(C(F)(F)F)cc2)O[C@H]1n1cnc2c(N[C@@H]3CCOC3)ncnc21 [Compound 16, 2-{6-[((3R)oxolan-3-yl)amino]purin-9-yl}(4S,5S,2R,3R)-5-[(4-(trifluoromethyl)phenylthio)methyl]oxolane-3,4-diol] | – |
| 22% | – | 48% | 922 nM | Cc1ccc(SC[C@H]2O[C@@H](n3cnc4c(N[C@@H]5CCOC5)ncnc43)[C@H](O)[C@@H]2O)cc1 [Compound 15, 2-{6-[((3R)oxolan-3-yl)amino]purin-9-yl}(4S,5S,2R,3R)-5-[(4-methylphenylthio)methyl]oxolane-3,4-diol] | – |
| 30% | – | 69% | – | O[C@@H]1[C@H](O)[C@@H](CSc2ccc(Cl)cc2)O[C@H]1n1cnc2c(N[C@@H]3CCOC3)ncnc21 [Compound 13, 2-{6-[((3R)oxolan-3-yl)amino]purin-9-yl}(4S,5S,2R,3R)-5-[(4-chlorophenylthio)methyl]oxolane-3,4-diol] | – |
| −9% | – | 52% | 820 nM | COc1ccc(SC[C@H]2O[C@@H](n3cnc4c(N[C@@H]5CCOC5)ncnc43)[C@H](O)[C@@H]2O)cc1 [Compound 12, 2-{6-[((3R)oxolan-3-yl)amino]purin-9-yl}(4S,5S,2R,3R)-5-[(4-Methoxyphenylthio)methyl]oxolane-3,4-diol] | – |
| 47% | – | 61% | 363 nM | O[C@@H]1[C@H](O)[C@@H](CSc2ccc(F)cc2)O[C@H]1n1cnc2c(N[C@@H]3CCOC3)ncnc21 [Compound 14, 2-{6-[((3R)oxolan-3-yl)amino]purin-9-yl}(4S,5S,2R,3R)-5-[(4-fluorophenylthio)methyl]oxolane-3,4-diol] | – |
